Measurements: patent publication US20200087258A1, “INHIBITOR OF CITRATE TRANSPORTER AND THEIR USE IN THERAPY” (Eternygen GmbH, priority 2017, published 2020)

What was measured:
INDY [1] = target: T1, INDY (Homo sapiens, UniProt Q86YT5); assay: 14C-citrate uptake in HepG2 cells endogenously expressing INDY (NaCT); assay type: cell-based; conditions: endogenous INDY
Method: (§1) The compound was obtained by screening of a library containing more than 50,000 lead-like compounds and fragments. The library was tested using a functional citrate uptake assay with HEK293 cells overexpressing recombinant human INDY. The following hit confirmation was conducted in the same assay system. To confirm the activity of selected compounds on the target INDY another cell assay was conducted. In this assay system citrate uptake was measured using HepG2 cells which endogenously express INDY. Furthermore selectivity of selected compounds was tested for two other transporters in different assay systems. The first transporter was the glutamate transporter GLT-1 tested in a glutamate uptake assays using HEK293 cells overexpressing recombinant human GLT-1. The second transporter was the glucose transporter GLUT1 tested in a glucose uptake assay using Huh-7 cells which endogenously express GLUT1. Compounds were considered to be selective with an at least 5-fold higher activity for INDY than for the other two transporters.
(§2) Cells were maintained in cell medium using cell culture grade flasks (CellSTACK Corning, 500 cm2 dishes or T175 depending on cell number). The selection antibiotic and G418 (800 μg/ml) was added during cultivation but not for seeding into assay plates. For splitting, cells were washed with PBS (w/o Ca2+, Mg2+, phenol red) and detached with Trypsin/EDTA. Throughout cultivation cells were kept sub-confluent. Detached cells (50,000 cells/well) were seeded in 96-well plates (white, clear bottom from Corning #655098) and incubated over night before usage in the assay. The following media were used. For HEK293 cells expressing INDY MEM (PAA)+10% FCS+1×P/S+2 mM L-Gln; for HEK293 cells expressing GLT-1 DMEM (Gibco)+10% FCS+400 µg/ml G418; for Huh7 cells DMEM (Gibco)+10% FCS+2 mM L-Gin (+1×P/S); for HepG2 cells MEM (PAA, Cat # E15-024)+10% FCS+2 mM L-Gin+1×NEAA+1 mM Na-Pyruvat
(§3) The following assay buffers for the particular uptake reaction were used. Citrate uptake buffer: 120 mM NaCl, 5.4 mM KCl, 0.8 mM MgSO4, 5 mM glucose, 1.8 mM CaCl2, 25 mM Hepes, 25 mM MES, pH 6.5. Glutamate uptake buffer: HBSS, 1 mM CaCl2, 1 mM MgCl2, 20 mM Hepes pH 7.4. Glucose uptake buffer: 25 mM Hepes+25 mM MES pH 7.4, 120 mM NaCl, 5.4 mM KCl, 1.8 mM CaCl2, 0.8 mM MgSO4.
INDY mediated citrate uptake was also determined in HepG2 cells. To determine the uptake of ^14C labelled citrate into cells, HepG2 cells endogenously expressing human NaCT were used. (Gopal et al. 2007 Am J Physiol Gastrointest Liver Physiol 292).
HepG2 cells were seeded into white clear-bottom 96-well plates (50,000/well) coated with collagen and incubated at 37° C. for 16-24 hours. After that plates were washed once with assay buffer using automated washing/LS 405 Selectors, BioTek ending with a buffer volume of 40 μl. Then 5 μl of compound solution in assay buffer was added and incubated for 5 min at 37° C. in cell incubator, HERA cell Heraeus. Afterwards 10 μl of substrate 14C-citrate (10 nM) were added and incubated for another 90 min at 37° C. in cell incubator, HERAcell. Then plates were washed 3× with 200 μl buffer and […] cell lysis induced by adding 50 μl ice-cold NaOH (100 mM). Plates were incubated for 25 min at RT on a plate shaker and afterwards 200 μl scintillation fluid was added and incubated for 15 min on a plate shaker at RT and for another 15 min without shaking at RT. Plates were measured using a TopCount system. As a positive control 5 mM citrate was applied. It is possible to use this assay also in analogy in a 384-well plate format.

INDY [2] = target: T1, INDY; assay: 14C-citrate uptake in HEK293 cells overexpressing recombinant human INDY (NaCT); assay type: cell-based; parameters: expressed in transfected cells; host or cells: HEK293
Method: as §1, §2, §3
INDY mediated citrate uptake was determined in HEK293 cells. To determine the uptake of ^14C labelled citrate into cells, HEK293 cells over-expressing human NaCT were used. Cloning of human NaCT was done in analogy as described in Birkenfeld et al. (Birkenfeld et al., 2011, Cell Metabolism 14, 184-195, 2011).
Human NaCT HEK293 cells were seeded into white clear-bottom 96-well plates (50,000/well) in the presence of 4 μg/ml Poly-D-Lysine and incubated at 37° C. for 16-24 hours. On the days of the assay the plates were washed once with assay buffer using automated washing/LS 405 Selectors, BioTek ending with a buffer volume of 40 μl. Then 5 μl of compound solution in assay buffer was added and incubated for 5-30 min at 37° C. in cell incubator, HERA cell Heraeus. Afterwards 10 μl of substrate 14C-citrate ([…]/[…] per well) were added and incubated for another 20-90 min at 37° C. in cell incubator, HERAcell. Then plates were washed twice with 200 μl ice-cold assay buffer and residual volume was discarded. For cell lysis 50 μl ice-cold NaOH (100 mM) was added and incubated for 15 minutes at RT on a plate shaker. Finally, 200 μl scintillation fluid (scintillator OptiPhase Supermix, Perkin Elmer) was added. After 15 min incubation at RT without shaking, plates were measured using a TopCount reader system (Perkin Elmer). As a positive control 10 mM citrate was applied. It is possible to use this assay also in analogy in a 384-well plate format.

T1 sequence (Q86YT5 whole entry, the tested form may be a part): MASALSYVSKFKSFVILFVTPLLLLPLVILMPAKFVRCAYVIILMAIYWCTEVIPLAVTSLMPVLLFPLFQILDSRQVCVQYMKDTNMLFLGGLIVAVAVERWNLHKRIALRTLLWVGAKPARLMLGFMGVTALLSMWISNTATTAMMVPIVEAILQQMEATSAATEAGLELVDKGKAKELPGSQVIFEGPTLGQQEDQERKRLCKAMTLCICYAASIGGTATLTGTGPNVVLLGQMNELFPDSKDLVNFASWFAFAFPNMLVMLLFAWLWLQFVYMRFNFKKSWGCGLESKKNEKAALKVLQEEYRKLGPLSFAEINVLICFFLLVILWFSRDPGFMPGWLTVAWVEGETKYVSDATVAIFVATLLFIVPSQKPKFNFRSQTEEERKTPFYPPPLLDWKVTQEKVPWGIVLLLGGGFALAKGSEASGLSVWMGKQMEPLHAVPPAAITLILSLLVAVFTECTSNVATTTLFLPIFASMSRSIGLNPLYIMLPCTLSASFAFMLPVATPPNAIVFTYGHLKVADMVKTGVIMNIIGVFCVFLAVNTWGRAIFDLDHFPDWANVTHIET

| IC50 (INDY [1]) [nM] | IC50 (INDY [2]) [nM] | Compound |
| --- | --- | --- |
| > 50000 |  | O=S(=O)(/C=C/c1ccccc1)N1CCC(CNCc2ccccc2F)CC1 [Example 10, [(2-fluorophenyl)methyl]({1-[(E)-phenylethenesulfonyl]piperidin-4-yl}methyl)amine] |
| 2700 | 2900 | COc1ccccc1CNC(=O)C1CCN(S(=O)(=O)/C=C/c2ccccc2)CC1 [Example 15, N-[(2-methoxyphenyl)methyl]-1-[(E)-2-phenylethenesulfonyl]piperidine-4-carboxamide] |
| 1500 | 1400 | COc1cccc(S(=O)(=O)N2CCC(C(=O)NCc3ccccc3F)CC2)c1 [Example 16, N-[(2-fluorophenyl)methyl]-1-(3-methoxybenzenesulfonyl)piperidine-4-carboxamide] |
| 3400 | 5000 | COc1ccccc1S(=O)(=O)N1CCC(C(=O)NCc2ccccc2F)CC1 [Example 19, N-[(2-fluorophenyl)methyl]-1-(2-methoxybenzenesulfonyl)piperidine-4-carboxamide] |
| > 20000 | 7400 | O=C(NCc1cccc(F)c1)C1CCN(S(=O)(=O)/C=C/c2ccccc2)CC1 [Example 21, N-[(3-fluorophenyl)methyl]-1-[(E)-2-phenylethenesulfonyl]piperidine-4-carboxamide] |
| 7000 | 3400 | O=C(NCc1cccc(F)c1F)C1CCN(S(=O)(=O)/C=C/c2ccccc2)CC1 [Example 22, N-[(2,3-difluorophenyl)methyl]-1-[(E)-2-phenylethenesulfonyl]piperidine-4-carboxamide] |
| > 20000 | 4600 | O=C(NCc1cc(F)ccc1F)C1CCN(S(=O)(=O)/C=C/c2ccccc2)CC1 [Example 23, N-[(2,5-difluorophenyl)methyl]-1-[(E)-2-phenylethenesulfonyl]piperidine-4-carboxamide] |
| 4200 | 9300 | CC(C)Oc1ccc(S(=O)(=O)N2CCC(C(=O)NCc3ccccc3F)CC2)cc1 [Example 24, N-[(2-fluorophenyl)methyl]-1-[4-(propan-2-yloxy)benzenesulfonyl]piperidine-4-carboxamide] |
| 15900 | 5200 | O=C(NCc1ccccc1F)C1CCN(S(=O)(=O)c2ccc3c(c2)OCO3)CC1 [Example 26, 1-(2H-1,3-benzodioxole-5-sulfonyl)-N-[(2-fluorophenyl)methyl]piperidine-4-carboxamide] |
| 2400 | 3000 | O=C(NCc1ccccc1F)C1CCN(S(=O)(=O)c2ccc(Cl)cc2)CC1 [Example 27, 1-(4-chlorobenzenesulfonyl)-N-[(2-fluorophenyl)methyl]piperidine-4-carboxamide] |
| 15700 | > 20000 | O=C(NCc1ccccc1F)C1CCN(S(=O)(=O)c2ccc(Cl)c(Cl)c2)CC1 [Example 28, 1-(3,4-dichlorobenzenesulfonyl)-N-[(2-fluorophenyl)methyl]piperidine-4-carboxamide] |
| 800 | 800 | O=C(NCc1ccccc1F)C1CCN(S(=O)(=O)c2ccc(-c3ccccc3)cc2)CC1 [Example 30, 1-{[1,1′-biphenyl]-4-sulfonyl}-N-[(2-fluorophenyl)methyl]piperidine-4-carboxamide] |
| 6700 | 5100 | O=C(NCc1ccccc1Br)C1CCN(S(=O)(=O)/C=C/c2ccccc2)CC1 [Example 32, N-[(2-bromophenyl)methyl]-1-[(E)-2-phenylethenesulfonyl]piperidine-4-carboxamide] |
| 1000 | 500 | CC(C)(C)c1cccc(S(=O)(=O)N2CCC(C(=O)NCc3ccccc3F)CC2)c1 [Example 33, 1-(3-tert-butylbenzenesulfonyl)-N-[(2-fluorophenyl)methyl]piperidine-4-carboxamide] |
| 4500 | 1000 | CCc1ccc(S(=O)(=O)N2CCC(C(=O)NCc3ccccc3F)CC2)cc1 [Example 34, 1-(4-ethylbenzenesulfonyl)-N-[(2-fluorophenyl)methyl]piperidine-4-carboxamide] |
| 2900 | 1500 | Cc1ccc(S(=O)(=O)N2CCC(C(=O)NCc3ccccc3F)CC2)cc1 [Example 35, N-[(2-fluorophenyl)methyl]-1-(4-methylbenzenesulfonyl)piperidine-4-carboxamide] |
| 1000 | 1000 | O=C(NCc1ccccc1F)C1CCN(S(=O)(=O)c2ccc(I)cc2)CC1 [Example 36, N-[(2-fluorophenyl)methyl]-1-(4-iodobenzenesulfonyl)piperidine-4-carboxamide] |
| 800 | 300 | COc1ccccc1CNC(=O)C1CCN(S(=O)(=O)c2ccc(C(C)(C)C)cc2)CC1 [Example 38, 1-(4-tert-butylbenzenesulfonyl)-N-[(2-methoxyphenyl)methyl]piperidine-4-carboxamide] |
| 2100 | 200 | CC(C)(C)c1ccc(S(=O)(=O)N2CCC(C(=O)NCc3ccccc3Cl)CC2)cc1 [Example 39, 1-(4-tert-butylbenzenesulfonyl)-N-[(2-chlorophenyl)methyl]piperidine-4-carboxamide] |
| 3200 | 1800 | O=C(NCc1ccccc1O)C1CCN(S(=O)(=O)/C=C/c2ccccc2)CC1 [Example 41, N-[(2-hydroxyphenyl)methyl]-1-[(E)-2-phenylethenesulfonyl]piperidine-4-carboxamide] |
| 400 | 300 | O=C(NCc1ccccc1F)C1CCN(S(=O)(=O)c2ccc(Cl)cc2Cl)CC1 [Example 43, 1-(2,4-dichlorobenzenesulfonyl)-N-[(2-fluorophenyl)methyl]piperidine-4-carboxamide] |
| 9300 | 9300 | CC(C)(C)c1ccc(S(=O)(=O)N2CC(C(=O)NCc3ccccc3F)C2)cc1 [Example 46, 1-(4-tert-butylbenzenesulfonyl)-N-[(2-fluorophenyl)methyl]azetidine-3-carboxamide] |
| 700 | 700 | O=C(NCc1ccccc1F)C1CCN(S(=O)(=O)c2ccc3c(c2)OC(F)(F)O3)CC1 [Example 47, 1-[(2,2-difluoro-2H-1,3-benzodioxol-5-yl)sulfonyl]-N-[(2-fluorophenyl)methyl]piperidine-4-carboxamide] |
| 2700 | 6400 | O=C(NCc1ccccn1)C1CCN(S(=O)(=O)c2ccc(OC(F)(F)F)cc2)CC1 [Example 58, N-[(pyridin-2-yl)methyl]-1-[4-(trifluoromethoxy)benzenesulfonyl]piperidine-4-carboxamide] |
